Among the data in patent US20240116985A1, “STAPLED PEPTIDES AND METHODS THEREOF” (priority 2020, published 2024) are IC50 values, retold here.

As usually defined, the pIC50 is −log10 of the IC50, conventionally taken in molar units.

pIC50: −log10 of the molar value.

In the test the target is T1, full-length beta-Catenin (Uniprot ID P35222) (Homo sapiens, UniProt P35222).
T1 construct: 10 nM full-length beta-Catenin (Uniprot ID P35222)
T1 sequence (P35222 1-781): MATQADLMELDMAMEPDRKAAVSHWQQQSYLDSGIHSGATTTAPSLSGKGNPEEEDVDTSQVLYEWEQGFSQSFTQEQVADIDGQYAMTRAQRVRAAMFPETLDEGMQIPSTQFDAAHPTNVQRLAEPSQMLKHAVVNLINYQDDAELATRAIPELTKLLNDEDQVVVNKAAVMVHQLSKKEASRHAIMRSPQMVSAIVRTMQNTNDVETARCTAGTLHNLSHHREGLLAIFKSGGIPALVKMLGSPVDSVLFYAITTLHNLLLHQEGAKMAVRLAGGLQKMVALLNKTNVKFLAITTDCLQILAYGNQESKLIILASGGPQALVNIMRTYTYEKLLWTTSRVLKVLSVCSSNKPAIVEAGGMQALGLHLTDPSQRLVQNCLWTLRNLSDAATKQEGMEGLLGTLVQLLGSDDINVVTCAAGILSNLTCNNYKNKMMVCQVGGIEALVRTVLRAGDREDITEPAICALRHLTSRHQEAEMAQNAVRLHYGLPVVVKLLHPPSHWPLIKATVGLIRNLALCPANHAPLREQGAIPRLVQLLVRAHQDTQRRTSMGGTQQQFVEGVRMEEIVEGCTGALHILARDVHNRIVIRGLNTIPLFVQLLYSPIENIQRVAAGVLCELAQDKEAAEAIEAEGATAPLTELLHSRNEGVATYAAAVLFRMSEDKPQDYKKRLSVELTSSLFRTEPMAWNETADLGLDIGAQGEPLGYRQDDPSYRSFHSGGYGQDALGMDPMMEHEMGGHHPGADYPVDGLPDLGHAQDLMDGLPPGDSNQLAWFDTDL
Briefly: Fluorescence polarization IC50 (beta-catenin / 5FAM-TCF4 10-53 competition). Particulars: fluorescence polarization; read-out: beta-Catenin FP IC50. It is filed as binding. (In fluorescence polarisation assays a small probe gives low polarisation when free and higher when bound to something large.)
For `CC(=O)N1CCC[C@]12CC=CCCCC1(CCCC=CCCCCCC[C@@](C)(C(=O)N[C@@H](Cc3ccsc3)C(=O)N[C@@H](Cc3csc4ccccc34)C(=O)N[C@@H](CCC(N)=O)C(N)=O)NC(=O)[C@H](CC(N)=O)NC(=O)[C@H](Cc3ccccc3)NC(=O)[C@H](C)NC(=O)[C@H](C)NC(=O)[C@H](CC(=O)O)NC(=O)[C@H](CC(=O)O)NC1=O)NC(=O)[C@H](CC(C)(C)C)NC(=O)[C@H](CC(=O)O)N(C)C2=O` (stereo partly drawn) [I-1165, Ac-PL3-NMeD-Npg-B5-Asp-Asp-Ala-Ala-Phe-Asn-S8-3Thi-BztA-Gln-NH2], the pIC50 was 6.14.

On to `CC(=O)N1CCC[C@]12CC=CCCCC1(CCCC=CCCCOC(=O)N3CC[C@@](C(=O)N[C@@H](Cc4ccsc4)C(=O)N[C@@H](Cc4csc5ccccc45)C(=O)N[C@@H](CCC(N)=O)C(N)=O)(C3)NC(=O)[C@H](CC(N)=O)NC(=O)[C@H](Cc3ccccc3)NC(=O)[C@H](C)NC(=O)[C@H](C)NC(=O)[C@H](CC(=O)O)NC(=O)[C@H](CC(C)C)NC1=O)NC(=O)[C@H](CC(C)(C)C)NC(=O)[C@H](CC(=O)O)NC2=O` (stereo partly drawn) [I-1212, Ac-PL3-Asp-Npg-B5-Leu-Asp-Ala-Ala-Phe-Asn-PyrS2-3Thi-BztA-Gln-NH2], for which the pIC50 was 5.06.

As to `CC(=O)N1CCC[C@]12CC=CCCCC1(CCCC=CCCCOC(=O)N3CC[C@@](C(=O)N[C@@H](Cc4ccsc4)C(=O)N[C@@H](Cc4csc5ccccc45)C(=O)N[C@@H](CCC(N)=O)C(N)=O)(C3)NC(=O)[C@H](CC(N)=O)NC(=O)[C@H](Cc3ccccc3)NC(=O)[C@H](C)NC(=O)[C@H](C)NC(=O)[C@H](CC(=O)O)NC(=O)[C@H](CC(=O)O)NC1=O)NC(=O)[C@H](CC(C)(C)C)NC(=O)[C@H](CO)NC2=O` (stereo partly drawn) [I-1222, Ac-PL3-Ser-Npg-B5-Asp-Asp-Ala-Ala-Phe-Asn-PyrS2-3Thi-BztA-Gln-NH2], the pIC50 is 6.29. On to `CC(=O)N1CCC[C@]12CC=CCCCC1(CCCC=CCCCOC(=O)N3CC[C@@](C(=O)N[C@@H](Cc4ccsc4)C(=O)N[C@@H](Cc4csc5ccccc45)C(=O)N[C@@H](CCC(N)=O)C(N)=O)(C3)NC(=O)[C@H](CC(C)C)NC(=O)[C@H](Cc3ccccc3)NC(=O)[C@H](C)NC(=O)[C@H](C)NC(=O)[C@H](CC(=O)O)NC(=O)[C@H](CC(=O)O)NC1=O)NC(=O)[C@H](CC(C)(C)C)NC(=O)[C@H](CO)NC2=O` (stereo partly drawn) [I-1223, Ac-PL3-Ser-Npg-B5-Asp-Asp-Ala-Ala-Phe-Leu-PyrS2-3Thi-BztA-Gln-NH2], for which the pIC50 is 6.26. As to `CC(=O)N1CCC[C@]12CC=CCCCC1(CCCC=CCCCOC(=O)N3CC[C@@](C(=O)N[C@@H](Cc4ccsc4)C(=O)N[C@@H](Cc4csc5ccccc45)C(=O)N[C@@H](CCC(N)=O)C(N)=O)(C3)NC(=O)[C@H](CC(N)=O)NC(=O)[C@H](Cc3ccccc3)NC(=O)[C@H](C)NC(=O)[C@H](C)NC(=O)[C@H](CC(=O)O)NC(=O)[C@H](CC(=O)O)NC1=O)NC(=O)[C@H](CC(C)(C)C)NC(=O)[C@H](CCC(N)=O)NC2=O` (stereo partly drawn) [I-1224, Ac-PL3-Gln-Npg-B5-Asp-Asp-Ala-Ala-Phe-Asn-PyrS2-3Thi-BztA-Gln-NH2], the pIC50 is 6.41. Turning to `CC(=O)N1CCC[C@]12CC=CCCCC1(CCCC=CCCCOC(=O)N3CC[C@@](C(=O)N[C@@H](Cc4ccsc4)C(=O)N[C@@H](Cc4csc5ccccc45)C(=O)N[C@@H](CCC(N)=O)C(N)=O)(C3)NC(=O)[C@H](CC(C)C)NC(=O)[C@H](Cc3ccccc3)NC(=O)[C@H](C)NC(=O)[C@H](C)NC(=O)[C@H](CC(=O)O)NC(=O)[C@H](CC(=O)O)NC1=O)NC(=O)[C@H](CC(C)(C)C)NC(=O)[C@H](CCC(N)=O)NC2=O` (stereo partly drawn) [I-1225, Ac-PL3-Gln-Npg-B5-Asp-Asp-Ala-Ala-Phe-Leu-PyrS2-3Thi-BztA-Gln-NH2], the pIC50 is 6.52. The figure for `CC(=O)N1CCC[C@]12CC=CCCCC1(CCCC=CCCCOC(=O)N3CC[C@@](C(=O)N[C@@H](Cc4ccsc4)C(=O)N[C@@H](Cc4csc5ccccc45)C(=O)N[C@@H](CCC(N)=O)C(N)=O)(C3)NC(=O)[C@H](CC(N)=O)NC(=O)[C@H](Cc3ccccc3)NC(=O)[C@H](C)NC(=O)[C@H](C)NC(=O)[C@H](CC(=O)O)NC(=O)[C@H](CC(=O)O)NC1=O)NC(=O)[C@H](CC(C)(C)C)NC(=O)[C@H](CC(C)C)NC2=O` (stereo partly drawn) [I-1226, Ac-PL3-Leu-Npg-B5-Asp-Asp-Ala-Ala-Phe-Asn-PyrS2-3Thi-BztA-Gln-NH2] is 6.25; for `CC(=O)N1CCC[C@]12CC=CCCCC1(CCCC=CCCCOC(=O)N3CC[C@@](C(=O)N[C@@H](Cc4ccsc4)C(=O)N[C@@H](Cc4csc5ccccc45)C(=O)N[C@@H](CCC(N)=O)C(N)=O)(C3)NC(=O)[C@H](CC(N)=O)NC(=O)[C@H](Cc3ccccc3)NC(=O)[C@H](C)NC(=O)[C@H](C)NC(=O)[C@H](CC(=O)O)NC(=O)[C@H](CC(=O)O)NC1=O)NC(=O)[C@H](CC(C)(C)C)NC(=O)[C@H](CCO)NC2=O` (stereo partly drawn) [I-1228, Ac-PL3-Hse-Npg-B5-Asp-Asp-Ala-Ala-Phe-Asn-PyrS2-3Thi-BztA-Gln-NH2] it is 7.00; for `CC(=O)N1CCC[C@]12CC=CCCCC1(CCCC=CCCCOC(=O)N3CC[C@@](C(=O)N[C@@H](Cc4ccsc4)C(=O)N[C@@H](Cc4csc5ccccc45)C(=O)N[C@@H](CCC(N)=O)C(N)=O)(C3)NC(=O)[C@H](CC(C)C)NC(=O)[C@H](Cc3ccccc3)NC(=O)[C@H](C)NC(=O)[C@H](C)NC(=O)[C@H](CC(=O)O)NC(=O)[C@H](CC(=O)O)NC1=O)NC(=O)[C@H](CC(C)(C)C)NC(=O)[C@H](CCO)NC2=O` (stereo partly drawn) [I-1229, Ac-PL3-Hse-Npg-B5-Asp-Asp-Ala-Ala-Phe-Leu-PyrS2-3Thi-BztA-Gln-NH2] it is 6.87. Turning to `CC(=O)N1CCC[C@]12CC=CCCCC1(CCCC=CCCCOC(=O)N3CC[C@@](C(=O)N[C@@H](Cc4ccccc4Cl)C(=O)N[C@@H](Cc4csc5ccccc45)C(=O)N[C@H](CO)CC(C)C)(C3)NC(=O)[C@H]([C@@H](C)O)NC(=O)[C@H](Cc3ccccc3)NC(=O)[C@H](C)NC(=O)[C@H](C)NC(=O)[C@H](CN(CC(=O)O)CC(F)(F)F)NC(=O)[C@H](CC(=O)O)NC1=O)NC(=O)[C@H](CC(C)(C)C)NC(=O)[C@H](CC(=O)O)NC2=O` (stereo partly drawn) [I-1243, Ac-PL3-Asp-Npg-B5-Asp-TfeGA-Ala-Ala-Phe-Thr-PyrS2-2C1F-BztA-Leuo1], the pIC50 is 7.09. For `CC(=O)N1CCC[C@]12CC=CCCCC1(CCCC=CCCCOC(=O)N3CC[C@@](C(=O)N[C@@H](Cc4ccccc4Cl)C(=O)N[C@@H](Cc4csc5ccccc45)C(=O)N[C@H](CO)CC(C)C)(C3)NC(=O)[C@H](CC(C)C)NC(=O)[C@H](Cc3ccccc3)NC(=O)[C@H](C)NC(=O)[C@H](C)NC(=O)[C@H](CC(=O)O)NC(=O)[C@H](CC(=O)O)NC1=O)NC(=O)[C@H](CC(C)(C)C)NC(=O)[C@H](CC(=O)O)NC2=O` (stereo partly drawn) [I-1251, Ac-PL3-Asp-Npg-B5-Asp-Asp-Ala-Ala-Phe-Leu-PyrS2-2C1F-BztA-Leuo1], the negative-log IC50 (pIC50) was 5.71. To `CCCCCCCC(=O)N1CCC[C@]12CC=CCCCC1(CCCC=CCCCCCC[C@@](C)(C(=O)N[C@@H](Cc3ccccc3Cl)C(=O)N[C@@H](Cc3csc4ccccc34)C(=O)N[C@@H](CCC(N)=O)C(N)=O)NC(=O)[C@H]([C@@H](C)O)NC(=O)[C@H](Cc3ccccc3)NC(=O)[C@H](C)NC(=O)[C@H](C)NC(=O)[C@H](CC(=O)O)NC(=O)[C@H](CC(=O)O)NC1=O)NC(=O)[C@H](CC(C)(C)C)NC(=O)[C@H](CC(=O)O)NC2=O` (stereo partly drawn) [I-1254, Oct-PL3-Asp-Npg-B5-Asp-Asp-Ala-Ala-Phe-Thr-S8-2C1F-BztA-Gln-NH2] belongs 6.28. `CC(=O)N1CCC[C@]12CC=CCCCC1(CCCC=CCCOC(=O)N3CC[C@@](C(=O)N[C@@H](Cc4ccccc4Cl)C(=O)N[C@@H](Cc4csc5ccccc45)C(=O)N[C@@H](C(N)=O)[C@H](C)O)(C3)NC(=O)[C@H](CC(N)=O)NC(=O)[C@H](Cc3ccccc3)NC(=O)[C@H](C)NC(=O)[C@H](C)NC(=O)[C@H](CC(=O)O)NC(=O)[C@H](CC(=O)O)NC1=O)NC(=O)[C@H](CC(C)(C)C)NC(=O)[C@H](CC(=O)O)NC2=O` (stereo partly drawn) [I-1256, Ac-PL3-Asp-Npg-B5-Asp-Asp-Ala-Ala-Phe-Asn-PyrS1-2C1F-BztA-dThr-NH2]: the pIC50 is 5.83.

For `CC(=O)N1CCC[C@]12CC=CCCCC1(CCCC=CCCCOC(=O)N3CC[C@@](C(=O)N[C@@H](Cc4ccsc4)C(=O)N[C@@H](Cc4csc5ccccc45)C(=O)N[C@@H](CCC(N)=O)C(=O)NCc4ccccc4)(C3)NC(=O)[C@H](CC(N)=O)NC(=O)[C@H](Cc3ccccc3)NC(=O)[C@H](C)NC(=O)[C@H](C)NC(=O)[C@H](CC(=O)O)NC(=O)[C@H](CC(=O)O)NC1=O)NC(=O)[C@H](CC(C)(C)C)NC(=O)[C@H](CC(=O)O)NC2=O` (stereo partly drawn) [I-1257, Ac-PL3-Asp-Npg-B5-Asp-Asp-Ala-Ala-Phe-Asn-PyrS2-3Thi-BztA-Gln-NHBn], the pIC50 is 7.96. To `C[C@@H]1NC(=O)[C@H](C)NC(=O)[C@H](CC(=O)O)NC(=O)[C@H](CC(=O)O)NC(=O)C2(CCCC=CCCCOC(=O)N3CC[C@@](C(=O)N[C@@H](Cc4ccccc4)C(=O)N[C@@H](Cc4csc5ccccc45)C(=O)N[C@@H](CO)C(N)=O)(C3)NC(=O)[C@H](CO)NC(=O)[C@H](Cc3ccccc3)NC1=O)CCCC=CC[C@]1(CCCN1C(=O)CCCN(C)C)C(=O)N[C@@H](CC(=O)O)C(=O)N[C@@H](CC(C)(C)C)C(=O)N2` (stereo partly drawn) [I-1354, NdiMeButC-PL3-Asp-Npg-B5-Asp-Asp-Ala-Ala-Phe-Ser-PyrS2-Phe-BztA-Ser-NH2] belongs 7.32.
